In patent publication US9133206B2, “Benzodiazepine and pyridodiazepine derivatives” (AbbVie Inc., priority 2010, dated 2015):

Test system: SK-N-SH human neuroblastoma cells
Test: Serum Deprivation/JC-1 Mitochondrial Membrane Potential (MMP) Assay
Assay type: cell-based
Conditions: Homo sapiens; for EC50 / Emax: SK-N-SH; for EC50: 18 h, serum deprivation ~18 hours, JC-1 ratio normalized to peak value for 10 μM dimebolin, single curve fit to mean data of n=2-3; for Emax: percent maximal intensity in JC-1 ratio normalized to peak value for 10 μM dimebolin, read-out: JC-1 max %; for Emax / activation at 3 µM: serum deprivation; for activation at 3 µM: single dose 3 μM, JC-1 ratio normalized to peak value for 10 μM dimebolin (n=2-4), read-out: JC-1 max % (@ 3 μM)
Method in brief: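 SK-N-SH cells serum-deprived ~18 h with compound, then stained with JC-1 for 40 min at 37 °C; red (560/595 nm) to green (485/535 nm) ratio reports membrane potential. Response normalized to peak from 10 μM dimebolin; EC50 from fit to mean of n=2–3, or single-dose 3 μM; DMSO ≤1%.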

| SMILES | EC50 [nM] | Emax [%] | activation at 3 µM [%] |
| --- | --- | --- | --- |
| O=C(N1CCOCC1)N1Cc2ccccc2N2CCN(S(=O)(=O)c3ccccc3)CC2C1 (stereo not shown) [Example 81, morpholin-4-yl[3-(phenylsulfonyl)-1,2,3,4,4a,5-hexahydropyrazino[1,2-a][1,4]benzodiazepin-6(7H)-yl]methanone] | 9920 | 129 | – |
| O=C(N1CCOCC1)N1Cc2ccccc2N2CCN(c3ccc(Cl)cc3)CC2C1 (stereo not shown) [Example 82, [3-(4-chlorophenyl)-1,2,3,4,4a,5-hexahydropyrazino[1,2-a][1,4]benzodiazepin-6(7H)-yl](morpholin-4-yl)methanone] | 5110 | 127 | – |
| CC(=O)N1CCN2c3ccccc3CN(C(=O)N3CCOCC3)CC2C1 (stereo not shown) [Example 83, 1-[6-(morpholin-4-ylcarbonyl)-1,2,4a,5,6,7-hexahydropyrazino[1,2-a][1,4]benzodiazepin-3(4H)-yl]ethanone] | > 31600 | 34 | – |
| CC(=O)N1CCC(C(=O)N2Cc3ccccc3N3CCN(Cc4ccccc4)CC3C2)CC1 (stereo not shown) [Example 84, 1-{4-[(3-benzyl-1,2,3,4,4a,5-hexahydropyrazino[1,2-a][1,4]benzodiazepin-6(7H)-yl)carbonyl]piperidin-1-yl}ethanone] | – | – | 183 |
| O=C(c1cn[nH]c1)N1Cc2ccccc2N2CCN(Cc3ccccc3)CC2C1 (stereo not shown) [Example 85, (3-benzyl-1,2,3,4,4a,5-hexahydropyrazino[1,2-a][1,4]benzodiazepin-6(7H)-yl)(1H-pyrazol-4-yl)methanone] | – | – | 80 |
| O=C(c1ccn[nH]1)N1Cc2ccccc2N2CCN(Cc3ccccc3)CC2C1 (stereo not shown) [Example 86, (3-benzyl-1,2,3,4,4a,5-hexahydropyrazino[1,2-a][1,4]benzodiazepin-6(7H)-yl)(1H-pyrazol-5-yl)methanone] | 3140 | 218 | – |
| O=C(CN1CCOCC1)N1Cc2ccccc2N2CCN(Cc3ccccc3)CC2C1 (stereo not shown) [Example 87, 1-(3-benzyl-1,2,3,4,4a,5-hexahydropyrazino[1,2-a][1,4]benzodiazepin-6(7H)-yl)-2-(morpholin-4-yl)ethanone] | – | – | 83 |
| O=C(c1cscn1)N1Cc2ccccc2N2CCN(Cc3ccccc3)CC2C1 (stereo not shown) [Example 88, (3-benzyl-1,2,3,4,4a,5-hexahydropyrazino[1,2-a][1,4]benzodiazepin-6(7H)-yl)(1,3-thiazol-4-yl)methanone] | – | – | 139 |
| O=C(c1cncs1)N1Cc2ccccc2N2CCN(Cc3ccccc3)CC2C1 (stereo not shown) [Example 89, (3-benzyl-1,2,3,4,4a,5-hexahydropyrazino[1,2-a][1,4]benzodiazepin-6(7H)-yl)(1,3-thiazol-5-yl)methanone] | 1830 | 140 | – |
| O=C(c1ccno1)N1Cc2ccccc2N2CCN(Cc3ccccc3)CC2C1 (stereo not shown) [Example 90, (3-benzyl-1,2,3,4,4a,5-hexahydropyrazino[1,2-a][1,4]benzodiazepin-6(7H)-yl)(1,2-oxazol-5-yl)methanone] | – | – | 114 |
| O=C(CCN1CCCC1)N1Cc2ccccc2N2CCN(Cc3ccccc3)CC2C1 (stereo not shown) [Example 91, 1-(3-benzyl-1,2,3,4,4a,5-hexahydropyrazino[1,2-a][1,4]benzodiazepin-6(7H)-yl)-3-(pyrrolidin-1-yl)propan-1-one] | – | – | 78 |
| O=C(CC1CC1)N1Cc2ccccc2N2CCN(Cc3ccccc3)CC2C1 (stereo not shown) [Example 92, 1-(3-benzyl-1,2,3,4,4a,5-hexahydropyrazino[1,2-a][1,4]benzodiazepin-6(7H)-yl)-2-cyclopropylethanone] | 2470 | 174 | – |
| O=C(c1ccc[nH]1)N1Cc2ccccc2N2CCN(Cc3ccccc3)CC2C1 (stereo not shown) [Example 93, (3-benzyl-1,2,3,4,4a,5-hexahydropyrazino[1,2-a][1,4]benzodiazepin-6(7H)-yl)(1H-pyrrol-2-yl)methanone] | 1560 | 185 | – |
| O=C(c1ccoc1)N1Cc2ccccc2N2CCN(Cc3ccccc3)CC2C1 (stereo not shown) [Example 94, (3-benzyl-1,2,3,4,4a,5-hexahydropyrazino[1,2-a][1,4]benzodiazepin-6(7H)-yl)(3-furyl)methanone] | 2760 | 172 | – |
| Cc1cc(C(=O)N2Cc3ccccc3N3CCN(Cc4ccccc4)CC3C2)c(C)n1C (stereo not shown) [Example 95, (3-benzyl-1,2,3,4,4a,5-hexahydropyrazino[1,2-a][1,4]benzodiazepin-6(7H)-yl)(1,2,5-trimethyl-1H-pyrrol-3-yl)methanone] | 282 | 189 | – |
| Cc1cc(C(=O)N2Cc3ccccc3N3CCN(Cc4ccccc4)CC3C2)c(C)[nH]1 (stereo not shown) [Example 96, (3-benzyl-1,2,3,4,4a,5-hexahydropyrazino[1,2-a][1,4]benzodiazepin-6(7H)-yl)(2,5-dimethyl-1H-pyrrol-3-yl)methanone] | 856 | 180 | – |
| NC(=O)C1(C(=O)N2Cc3ccccc3N3CCN(Cc4ccccc4)CC3C2)CC1 (stereo not shown) [Example 97, 1-[(3-benzyl-1,2,3,4,4a,5-hexahydropyrazino[1,2-a][1,4]benzodiazepin-6(7H)-yl)carbonyl]cyclopropanecarboxamide] | – | – | 32 |
| O=C(Cc1cccnc1)N1Cc2ccccc2N2CCN(Cc3ccccc3)CC2C1 (stereo not shown) [Example 98, 1-(3-benzyl-1,2,3,4,4a,5-hexahydropyrazino[1,2-a][1,4]benzodiazepin-6(7H)-yl)-2-(pyridin-3-yl)ethanone] | – | – | 107 |
| O=C(NCC(=O)N1Cc2ccccc2N2CCN(Cc3ccccc3)CC2C1)c1ccco1 (stereo not shown) [Example 99, N-[2-(3-benzyl-1,2,3,4,4a,5-hexahydropyrazino[1,2-a][1,4]benzodiazepin-6(7H)-yl)-2-oxoethyl]-2-furamide] | 3150 | 165 | – |
| CC(C)C(=O)N1Cc2ccccc2N2CCN(Cc3ccccc3)CC2C1 (stereo not shown) [Example 100, 1-(3-benzyl-1,2,3,4,4a,5-hexahydropyrazino[1,2-a][1,4]benzodiazepin-6(7H)-yl)-2-methylpropan-1-one] | – | – | 118 |
| Cc1noc(C)c1C(=O)N1Cc2ccccc2N2CCN(Cc3ccccc3)CC2C1 (stereo not shown) [Example 101, (3-benzyl-1,2,3,4,4a,5-hexahydropyrazino[1,2-a][1,4]benzodiazepin-6(7H)-yl)(3,5-dimethyl-1,2-oxazol-4-yl)methanone] | – | – | 149 |
| Cc1cnc(C(=O)N2Cc3ccccc3N3CCN(Cc4ccccc4)CC3C2)cn1 (stereo not shown) [Example 102, (3-benzyl-1,2,3,4,4a,5-hexahydropyrazino[1,2-a][1,4]benzodiazepin-6(7H)-yl)(5-methylpyrazin-2-yl)methanone] | – | – | 110 |
| CN1CCN(CC(=O)N2Cc3ccccc3N3CCN(Cc4ccccc4)CC3C2)CC1 (stereo not shown) [Example 103, 1-(3-benzyl-1,2,3,4,4a,5-hexahydropyrazino[1,2-a][1,4]benzodiazepin-6(7H)-yl)-2-(4-methylpiperazin-1-yl)ethanone] | – | – | 42 |
| O=C(c1ccco1)N1Cc2ccccc2N2CCN(Cc3ccccc3)CC2C1 (stereo not shown) [Example 104, (3-benzyl-1,2,3,4,4a,5-hexahydropyrazino[1,2-a][1,4]benzodiazepin-6(7H)-yl)(2-furyl)methanone] | – | – | 178 |
| Cn1cccc1C(=O)N1Cc2ccccc2N2CCN(Cc3ccccc3)CC2C1 (stereo not shown) [Example 105, (3-benzyl-1,2,3,4,4a,5-hexahydropyrazino[1,2-a][1,4]benzodiazepin-6(7H)-yl)(1-methyl-1H-pyrrol-2-yl)methanone] | 2520 | 197 | – |
